The source of these data is US10293004B2, “Butyrate-producing bacterium and use thereof” (KABUSHIKI KAISHA YAKULT HONSHA, priority 2014, dated 2019).

The nature of assay [1]: Amount of butyrate produced by culture in PYA medium supplemented with acetate and lactate. Conditions: PYA medium (33 mM sodium acetate) with 40 mM sodium lactate, 37° C. 24 hours, minus PYA without lactate. On the procedure:
Each bacterial solution cultured in a PYGA liquid medium under the same conditions as those described in the preceding paragraph 1) was inoculated at 1% to a PYA medium containing 33 mM sodium acetate and further supplemented with 40 mM sodium lactate, followed by anaerobic culture at 37° C. for 24 hours. After the completion of the culture, the organic acid concentration in the culture solution was analyzed by ion-exclusion HPLC. The analysis conditions were the same as those described in the preceding paragraph 1). The amount of butyrate produced was calculated according to (Expression 2). Amount of butyrate produced=(Amount of butyrate produced by culture for 24 hours in a PYA medium supplemented with 40 mM sodium lactate)−(Amount of butyrate produced by culture for 24 hours in a PYA medium without 40 mM sodium lactate) (Expression 2)

Assay [2] in a line: Biochemical properties: enzymatic activity (API-ZYM, Rapid ID32A API, API KENKI 20A). More on the design: key: +: positive reaction; −: negative reaction; +^w: weak reaction. From the text: Commercially available API-ZYM, Rapid ID32A API, and API KENKI 20A (SYSMEX bioMerieux Co., Ltd.) were used in the testing of biochemical properties of various bacterial strains. The testing method followed the product manuals.

In the next assay the test system is mouse C57BL/6J. Put plainly: Multiple oral dose test of YIT 12355 to mouse given indigestible saccharide. Conditions: for Total cell count: DAPI counting method; for Cell count, A. hadrus: quantitative PCR; for Occupancy: cell count of YIT 12355/total cell count ×100; for Detected count: mice with A. hadrus detected / mice in group. Type of assay: in vivo. How it is done:
Mice were acclimatized and raised with F2 feed (manufactured by Funabashi Farm Co., Ltd.) for 1 week and then divided into 6 groups such that the average body weight was almost equal among these groups. Then, a control diet (Table 7) was administered thereto for 1 week and replaced with purified feed containing an indigestible material, which was then administered thereto for 2 weeks. A live cell suspension of YIT 12355 was orally administered twice a week a total of 4 times using a probe. At the final day of the test, each mouse was dissected, and the cecal and colonic contents were recovered and examined for an organic acid concentration. Also, the cell count of YIT 12355 in the intestinal tract contents was measured by quantitative PCR, while change in the whole intestinal flora was examined by use of PCR-DGGE (denaturing gradient gel electrophoresis). • Animal used: mouse C57BL/6J (4 weeks old; CLEA Japan, Inc.) • Test period: 3 weeks • Indigestible saccharide used: lactitol and maltitol • Dose of indigestible saccharide: 5% (w/w) • Administered bacterial strain: YIT 12355 • Dose of bacterium: live cell dose: 3.9 to 6.9×10^8 cfu/mouse (administration of a suspension in physiological saline using a probe). Total cell count including dead cells: […] cfu/mouse • Group configuration: 6 groups (5 mice/group) At the 2nd week of administration of the test feed, each mouse was anesthetized with diethyl ether and euthanized by cervical dislocation. After abdominal section, cecal tissues and colonic tissues were excised to recover their contents. The cecal and colonic contents were diluted 10-fold with PBS and subjected to DNA extraction. DNA was extracted by the bead-phenol method from the 10-fold diluted solution of the intestinal tract contents. Specifically, 0.3 g of glass beads (diameter: 0.1 mm), 300 μL of a Tris-SDS solution (a mixed solution of 250 mL of 200 mM Tris-HCl, 80 mM EDTA, pH 9.0, and 50 mL of 10% SDS) and 500 μL of TE saturated phenol were added to 200 μL of the diluted solution of the intestinal tract contents, and the mixture was vigorously shaken for 30 seconds using FASTPREP FP120 cell disruptive equipment (power level: 5.0). After centrifugation at 15,000 rpm for 5 minutes, 400 μL of a phenol/chloroform/isoamyl alcohol (25:24:1) solution was added to 400 μL of the supernatant, and the mixture was shaken for 45 seconds using FASTPREP FP120 cell disruptive equipment (power level: 4.0). After centrifugation at 15,000 rpm for 5 minutes, 25 μL of 3 M sodium acetate (pH 5.4) and 250 μL of isopropanol were added to 250 μL of the supernatant and mixed therewith. After centrifugation at 15,000 rpm for 5 minutes, the supernatant was removed, and 500 μL of 70% ethanol was added thereto, followed by centrifugation again at 15,000 rpm for 5 minutes. The supernatant was removed, and the pellets were dried and dissolved in 1.0 mL of a TE buffer. The obtained DNA solution was diluted 10-fold with purified water to prepare a template DNA solution. For quantitative PCR, 7500 Real-Time PCR System (manufactured by Life Technologies Corp.) was used. The total volume of the reaction solution was set to 20 μL, and SYBR Premix Ex Taq II (Takara Bio Inc.) containing 1.0 μM each of primers, and the template DNA solution were mixed and then subjected to quantitative PCR. The reaction conditions involved heating at 95° C. for 2 minutes, followed by 40 repetitive cycles each involving reactions at 95° C. for 20 seconds, 55° C. for 20 seconds and 72° C. for 50 seconds, and subsequent reaction at 72° C. for 3 minutes. For subsequent Tm value analysis, after reaction at 60° C. for 1 minute, the temperature was elevated at a temperature gradient of 0.2° C./sec to 95° C. during which the fluorescence of SYBR Green I was measured to measure the dissociation temperature (Tm) of the double strand of the amplification product. […]

For the substance “A. hadrus (Eubacterium hadrum) YIT 12355 (NITE BP-01832)”, the “Amount of butyrate produced” value in assay [1] stood at 19.9 mmol/L. Besides, in assay [2], the Acid phosphatase result is “+”, the Alkaline phosphatase entry is recorded as “+”, the “Esterase (C4)” value is given as “+” and the Naphthol-AS-B1-phosphohydrolase result is listed as “+”. Moreover, in assay [2], the α-Glucosidase entry was “+^w”, the β-Galactosidase entry was “+” and the β-Galactosidase-6-phosphate result is “−”. For the same substance, in the assay on mouse C57BL/6J (Cecal contents), the Total cell count is recorded as 10.9 ± 0.1 log10 cells/g contents, the Occupancy came to 0.1 ± 0.1% and the Detected count entry is given as “(4/5)”. Also, the “Cell count, A. hadrus” value with mouse C57BL/6J (Cecal contents, multiple oral dose) is on record as 7.0 ± 1.1 log10 cells/g contents. In the assay on mouse C57BL/6J (Colonic contents), the Total cell count was determined as 11.0 ± 0.0 log10 cells/g contents, the Occupancy came out at 0.1 ± 0.1% and the Detected count entry is “(4/5)”. The “Cell count, A. hadrus” value with mouse C57BL/6J (Colonic contents, ND: <lower quantification limit 6.0 log10 (cells/g contents)) is reported as 7.2 ± 1.1 log10 cells/g contents. Also, in the assay on mouse C57BL/6J (summary in words of Table 10), the “cell count of A. hadrus in the intestine” value was “largely changes neither” and the “occupancy of A. hadrus in the intestine” value is listed as “largely changes neither”.
